Assays:
Experiment in all cases: relative viability (nuclei count vs DMSO), 5 days (fraction); higher = more cells survive
Alisertib + Palbociclib = compound: COc1cc(Nc2ncc3c(n2)-c2ccc(Cl)cc2C(c2c(F)cccc2OC)=NC3)ccc1C(=O)O [Alisertib] + CC(=O)c1c(C)c2cnc(Nc3ccc(N4CCNCC4)cn3)nc2n(C2CCCC2)c1=O [Palbociclib] (partner 0.5 µM)
In short: (§1)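 Lung cancer cell lines in 1536-well plates got either a single drug or a fixed anchor-drug dose together with five library-drug doses (not always all listed) in √10 steps, by pin tool, on the day after seeding. Nuclei were counted after 5 days, and relative viability is the treated-to-vehicle ratio of nuclei counts. Values are medians of duplicate plates.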

Alisertib + Luminespib = compound: COc1cc(Nc2ncc3c(n2)-c2ccc(Cl)cc2C(c2c(F)cccc2OC)=NC3)ccc1C(=O)O [Alisertib] + CCNC(=O)c1noc(-c2cc(C(C)C)c(O)cc2O)c1-c1ccc(CN2CCOCC2)cc1 [Luminespib] (partner 0.01 µM)
In short: as §1

Alisertib + OSI-027 = compound: COc1cc(Nc2ncc3c(n2)-c2ccc(Cl)cc2C(c2c(F)cccc2OC)=NC3)ccc1C(=O)O [Alisertib] + COc1cccc2cc(-c3nc([C@H]4CC[C@H](C(=O)O)CC4)n4ncnc(N)c34)[nH]c12 [OSI-027] (partner 0.5 µM)
In short: as §1

Alisertib + Pictilisib = compound: COc1cc(Nc2ncc3c(n2)-c2ccc(Cl)cc2C(c2c(F)cccc2OC)=NC3)ccc1C(=O)O [Alisertib] + CS(=O)(=O)N1CCN(Cc2cc3nc(-c4cccc5[nH]ncc45)nc(N4CCOCC4)c3s2)CC1 [Pictilisib] (partner 1 µM)
In short: as §1

Cell Line	relative viability (Alisertib + Palbociclib; first compound 0.005 µM)	relative viability (Alisertib + Palbociclib; first compound 0.01581 µM)	relative viability (Alisertib + Palbociclib; first compound 0.05 µM)	relative viability (Alisertib + Palbociclib; first compound 0.1581 µM)	relative viability (Alisertib + Palbociclib; first compound 0.5 µM)	relative viability (Alisertib + Luminespib; first compound 0.005 µM)	relative viability (Alisertib + Luminespib; first compound 0.01581 µM)	relative viability (Alisertib + Luminespib; first compound 0.05 µM)	relative viability (Alisertib + Luminespib; first compound 0.1581 µM)	relative viability (Alisertib + Luminespib; first compound 0.5 µM)	relative viability (Alisertib + OSI-027; first compound 0.005 µM)	relative viability (Alisertib + OSI-027; first compound 0.01581 µM)	relative viability (Alisertib + OSI-027; first compound 0.05 µM)	relative viability (Alisertib + OSI-027; first compound 0.1581 µM)	relative viability (Alisertib + OSI-027; first compound 0.5 µM)	relative viability (Alisertib + Pictilisib; first compound 0.005 µM)	relative viability (Alisertib + Pictilisib; first compound 0.01581 µM)	relative viability (Alisertib + Pictilisib; first compound 0.05 µM)	relative viability (Alisertib + Pictilisib; first compound 0.1581 µM)	relative viability (Alisertib + Pictilisib; first compound 0.5 µM)
COR-L23	0.253	0.234	0.142	0.112	0.0947	0.585	0.568	0.303	0.0956	0.0981	0.739	0.661	0.517	0.133	0.13	0.662	0.632	0.248	0.137	0.0917
NCI-H1755	0.408	0.432	0.445	0.428	0.384	0.463	0.409	0.255	0.189	0.199	0.638	0.645	0.541	0.341	0.27	0.41	0.347	0.271	0.227	0.184
NCI-H1437	0.241	0.289	0.217	0.172	0.144	1.01	0.919	0.707	0.462	0.237	0.722	0.699	0.394	0.219	0.154	0.341	0.378	0.219	0.123	0.0875
NCI-H2085	0.505	0.469	0.344	0.346	0.336	0.419	0.341	0.309	0.342	0.329	0.591	0.746	0.469	0.222	0.235	0.463	0.435	0.46	0.248	0.248
H3255	0.313	0.314	0.312	0.278	0.249	0.753	0.841	0.522	0.259	0.212	0.589	0.575	0.444	0.269	0.271	0.472	0.447	0.286	0.165	0.152
NCI-H661	0.414	0.401	0.367	0.296	0.294	0.94	0.875	0.611	0.377	0.296	0.667	0.557	0.438	0.282	0.285	0.378	0.379	0.229	0.245	0.242

Reference: the supplement of paper PMC10307832
